The values that follow are results of earlier work, collected in patent JPH06128153A, “トラニラスト軟膏組成物およびその製造方法” (Kissei Pharmaceutical Co Ltd, priority 1992, dated 1994).

Where two headings read alike, the source gives them in different places.

For this data set the following is noted: stated as known, no test described.

As to `COc1ccc(/C=C/C(=O)Nc2ccccc2C(=O)O)cc1OC` [ナトリウム塩], under “ナトリウム塩”, the solubility in water result is on record as “わずかしか溶解しない”. With `COc1ccc(/C=C/C(=O)Nc2ccccc2C(=O)O)cc1OC` [トラニラスト], the solubility in water entry is listed as “極めて難溶”.
